# Test results taken from US8202902B2, “Bivalent SMAC mimetics and the uses thereof” (The Regents of the University of Michigan, priority 2006, dated 2012).
# Where two headings read alike, the source gives them in different places.
# Key:
# [1] = test system: MDA-MB-231 and SK-OV-3 cancer cell lines; assay: Role of caspase-8, -3 and -9 (siRNA, caspase inhibitors) in activity of Smac mimetics; assay type: cell-based; conditions: siRNA
# Description: To examine the role of caspase-8, -3 and -9 in apoptosis induction by Smac mimetics, siRNA was employed against these caspases in MDA-MB-231 and SK-OV-3 cancer cell lines.
# [2] = test system: HCT116 XIAP^+/+ and XIAP^−/− isogenic cell lines; assay: HCT116 XIAP+/+ and XIAP-/- isogenic cell lines, Smac mimetics with TNFα; assay type: cell-based
# Description: To complement the siRNA experiments and to more precisely define the role of XIAP in TNFα-dependent apoptosis induction by Smac mimetics, HCT116 XIAP^+/+ and XIAP^−/− isogenic cell lines were used in further studies (Cummins et al., Cancer Res. 64:3006 (2004)). Since both these cell lines were resistant to SM-122 and SM-164 as a single agent (FIG. 41), the role of XIAP using Smac mimetics in combination with TNFα was investigated.
# The combination of SM-164 at these concentrations with TNFα was effective in induction of caspase-3 activation, PARP cleavage and in inhibition of cell growth in the XIAP^+/+ cell line (FIG. 42). Although knockout of XIAP sensitized the HCT116 cells to SM-164 in combination with TNFα, the effect was much less than that observed with the combination of SM-122 with TNFα (FIG. 42).
# [3] = test system: MDA-MB-231, MALME-3M and SK-OV-3 cell lines; assay: Cell death induction with TNFα or TRAIL neutralizing antibody; assay type: cell-based
# cellular XIAP = cellular XIAP (Homo sapiens, UniProt P98170); conditions: cited from earlier work
# cellular XIAP, sequence (P98170 whole entry, the tested form may be a part): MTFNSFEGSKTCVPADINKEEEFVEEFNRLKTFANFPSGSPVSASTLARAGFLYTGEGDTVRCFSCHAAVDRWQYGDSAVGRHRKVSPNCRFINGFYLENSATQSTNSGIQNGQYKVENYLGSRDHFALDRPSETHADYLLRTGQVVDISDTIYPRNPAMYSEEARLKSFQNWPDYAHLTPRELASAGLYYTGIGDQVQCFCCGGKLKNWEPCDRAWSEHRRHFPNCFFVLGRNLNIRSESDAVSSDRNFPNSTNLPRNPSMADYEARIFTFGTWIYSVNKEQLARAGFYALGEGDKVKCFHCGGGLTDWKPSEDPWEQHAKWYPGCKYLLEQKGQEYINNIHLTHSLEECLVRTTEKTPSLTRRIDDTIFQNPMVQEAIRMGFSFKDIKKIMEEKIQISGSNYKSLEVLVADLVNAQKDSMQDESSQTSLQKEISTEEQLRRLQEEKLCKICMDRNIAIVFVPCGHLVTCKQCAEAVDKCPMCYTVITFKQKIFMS
# [4] = target: T1, human XIAP protein (residues 120-356) (Homo sapiens, UniProt P98170); assay: Fluorescence-polarization-based binding assay to XIAP protein (Smac2-F tracer)
# T1 construct: human XIAP protein (residues 120-356) (10 nM)
# T1 sequence (P98170 120-356): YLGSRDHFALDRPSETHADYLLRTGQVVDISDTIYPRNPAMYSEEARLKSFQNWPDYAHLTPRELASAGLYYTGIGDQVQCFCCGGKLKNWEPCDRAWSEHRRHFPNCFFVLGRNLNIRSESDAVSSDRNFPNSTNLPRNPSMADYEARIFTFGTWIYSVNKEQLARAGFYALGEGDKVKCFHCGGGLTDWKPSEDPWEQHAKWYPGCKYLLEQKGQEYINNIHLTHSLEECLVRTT
# Experimental: The polarization values were measured after 2 hours incubation, using the Ultra plate reader. […] Curve fitting is performed using GraphPad Prism® software.
# [5] = target: T2, Recombinant XIAP containing linker-BIR2-BIR3 (residues 120-356) (Homo sapiens, UniProt P98170); assay: Cell-free functional assay: antagonism of XIAP inhibition of caspase-3/-7; assay type: biochemical
# T2 construct: Recombinant XIAP containing linker-BIR2-BIR3 (residues 120-356)
# T2 sequence (P98170 120-356): as above
# [6] = test system: MALME-3M melanoma cell line; assay: Apoptosis assay (Annexin V/P.I.), MALME-3M; assay type: cell-based; conditions: 1 nM for 12 h
# Experimental: Analysis of apoptosis was performed using an apoptosis detection kit (BioVision Research Products, Mountain View, Calif.) according to the manufacturer's protocol. Briefly, cells were treated with Smac mimetics for 12 hours, harvested and washed with ice-cold PBS. Cells were stained with Annexin V-FITC and Propidium iodide (P.I.) for 15 minutes at room temperature in the dark and immediately analyzed by FACS calibur flow cytometer (Becton Dickinson, Erembodegem, Belgium). Cells that were stained Annexin V (+) and P.I. (−) were considered early-stage apoptotic cells. Cells that were stained annexin V (+) and P.I. (+) were considered late-stage apoptotic cells and cells that were stained annexin V (−) and P.I. (+) were considered necrotic cells (FIG. 6).
# Treatment with SM-164 at 1 nM for 12 h induced 32%, 33%, and 37% of the MDA-MB-231, SK-OV-3 and MALME-3M cells to undergo apoptosis, respectively (FIGS. 12-14).
# [7] = test system: MDA-MB-231 human breast cancer cell line; assay: Cell growth inhibition, WST-8 assay, MDA-MB-231; assay type: cell-based
# Experimental: The rate of cell growth inhibition after treatment with different concentrations of the compound was determined using a WST-8 kit (2-(2-methoxy-4-nitrophenyl)-3-(4-nitrophenyl)-5-(2, 4 disulfophenyl)-2H-tetrazolium monosodium salt; Dojindo Molecular Technologies, Inc., Gaithersburg, Md.). WST-8 was added at a final concentration of 10% to each well, and then the plates were incubated at 37° C. for 2-3 hrs. The absorbance of the samples was measured at 450 nm using a ULTRA Tecan Reader (Molecular Device).
# [8] = test system: cIAP-1 in cancer cell lines; assay: Induction of cIAP-1 degradation in cancer cells; assay type: cell-based
# [9] = target: T3, XIAP protein containing both BIR2 and BIR3 domains (Homo sapiens, UniProt P98170); assay: Fluorescence-polarization based binding assay, XIAP BIR2-BIR3
# T3 construct: XIAP protein containing both BIR2 and BIR3 domains; made in house
# T3 sequence (P98170 120-356 limits assumed): as the sequence (P98170 120-356) above
# [10] = test system: sensitive cancer cell lines (MDA-MB-231, MALME-3M, SK-OV-3); assay: XIAP knockdown by siRNA with exogenous TNFα, cell death; assay type: cell-based
# Experimental: To investigate the role of XIAP in apoptosis induction by Smac mimetics, XIAP was knocked down in sensitive cancer cell lines. Because XIAP knockdown attenuated the production and secretion of TNFα (FIG. 34) (Gaither et al., Cancer Res. 67:11493 (2007)), exogenous TNFα was added in these XIAP knockdown experiments. […] For example, while SM-122 at 100 nM in combination with TNFα killed 25% of the MDA-MB-231 cells when control siRNA was used, the same combination killed 75% of the cells when XIAP was knocked down.
# This is consistent with binding and functional data that indicates SM-164 binds to XIAP with a high affinity and is a potent antagonist of XIAP.
# [11] = test system: MDA-MB-231 xenograft model; assay: Inhibition of tumor growth in the MDA-MB-231 xenograft model; assay type: in vivo, mice
# Experimental: SM-164 was evaluated for its ability to inhibit tumor growth. […] Treatment with SM-164 at 5 mg/kg reduces the tumor volume from 147±54 mm^3 at the beginning of the treatment (day 25) to 54±32 mm^3 at the end of the treatment (day 36), a reduction of 65%. The strong antitumor activity by SM-164 is long lasting and not transient.
compound,measurement,setting,value
CN[C@@H](C)C(=O)N[C@H]1CCCC[C@H]2CC[C@@H](C(=O)N[C@@H](c3ccccc3)c3cn(CCCCc4ccc(CCCCn5cc([C@@H](NC(=O)[C@@H]6CC[C@@H]7CCCC[C@H](NC(=O)[C@H](C)NC)C(=O)N76)c6ccccc6)nn5)cc4)nn3)N2C1=O [SH-164],effect of knockdown of caspase-3 and -8 on activity,[1],markedly attenuated
same,effect of knockdown of caspase-9 on activity,[1],minimal effect
same,"caspase-3 activation, PARP cleavage and cell growth inhibition","[2]; 10-100 nM with TNFα, XIAP+/+ cell line",effective
same,cIAP-1 degradation,"[2]; 10-100 nM, both cell lines",effectively induced cIAP-1 degradation
same,sensitivity as a single agent,[2]; both cell lines,resistant
same,cell death induction in presence of neutralizing antibodies,[3],"effectively blocked by a TNFα, but not by a TRAIL, neutralizing antibody"
same,more potent than SM-122 in competing off a biotinylated Smac mimetic to cellular XIAP,cellular XIAP,> 100 times
same,binding affinity better than the monovalent Smac mimetic SH-122,[4],more than 500 fold
same,more potent than the natural Smac peptide AVPI,[4],> 5000 times
same,more potent than SM-122 in antagonizing XIAP and promoting caspase activity,[5],60 times
same,cells undergoing apoptosis,[6],37%
same,IC50,"[7]; MDA-MB-231, 96 h, 4 days, WST-8, read-out: IC50 cell growth inhibition",1.4 nM
same,IC50,"[7]; MDA-MB-231, read-out: IC50 values (nM) In WST-assay (MDA-MB-231)",< 10 nM
same,cIAP-1 level,"[8]; 1 nM for 60 min, sensitive cancer cell lines",reduced cIAP-1 markedly
same,cIAP-1 degradation,"[8]; 100 nM, SK-OV-3 cell line (FIG. 28)",rapid cIAP-1 degradation
same,cIAP-1 level / degradation,"[8]; 10-100 nM, sensitive cancer cell lines",undetectable levels
same,levels of XIAP protein,"[8]; MDA-MB-231 and SK-OV-3, 12-24 h time points",reduced
same,cIAP-1 degradation,[8]; resistant cancer cell lines,rapid cIAP-1 degradation
same,more potent than monovalent SM-122 for binding to XIAP,[9],300 times
same,cell death induction,"[10]; 3 and 10 nM, with or without TNFα",effectively induced cell death
same,sensitization by knockdown of XIAP,[10]; presence of exogenous TNFα,only modestly sensitized
same,tumor growth during the treatment,[11]; 1 mg/kg,completely inhibits tumor growth
same,tumor volume at the beginning of the treatment,"[11]; 5 mg/kg, day 25",147±54 mm^3
same,reduction of tumor volume,"[11]; 5 mg/kg, day 25 to day 36",65%
same,tumor volume at the end of the treatment,"[11]; 5 mg/kg, day 36",54±32 mm^3
same,efficacy compared with TXT,"[11]; 5 mg/kg, end of treatment (p<0.01) or control tumor 750 mm^3 (p<0.02)",statistically more effective than TXT
same,weight loss or other sign of toxicity,[11]; 1 or 5 mg/kg,no significant weight loss or other sign of toxicity
